Source: patent US7186831B2, “5-halo-2-alkyl[1,2,4]triazolo[1,5-a]pyrimidin-7-amines” (priority 2001, dated 2007)

Assay: log P by HPLC
Type: physicochemical
Details: EEC directive 79/831 Annex V. A8 by HPLC (gradient method, acetonitrile/0.1% aqueous phosphoric acid)

logP | SMILES
3.28 | Cc1nc2nc(Cl)c(-c3ccc(F)cc3F)c(N3CCc4ccccc4C3)n2n1 [compound 300]
4.27 | C=C(C)CN(C)c1c(-c2c(F)cc(F)cc2F)c(Cl)nc2nc(C3CC3)nn12 [compound 469]
4.18 | CN(CC1CC1(Cl)Cl)c1c(-c2ccc(F)cc2F)c(Cl)nc2nc(C3CC3)nn12 (centres unmarked) [compound 507]
3.41 | C=C(C)CNc1c(-c2ccccc2Cl)c(Cl)nc2nc(C3CC3)nn12 [compound 495]
3.99 | Cc1nc2nc(Cl)c(-c3c(F)cccc3Cl)c(N3CCC(C)CC3)n2n1 [compound 262]
3.36 | CCCN(CCOC)c1c(-c2ccccc2Cl)c(Cl)nc2nc(C)nn12 [compound 416]
3.37 | Cc1nc2nc(Cl)c(-c3ccccc3F)c(N3CCC(C(F)(F)F)CC3)n2n1 [compound 392]
3.48 | Cc1nc2nc(Cl)c(-c3ccccc3F)c(NC3CCC(C(F)(F)F)CC3)n2n1 (centres unmarked) [compound 400]
3.68 | Cc1nc2nc(Cl)c(-c3c(F)cc(F)cc3F)c(N(C)CC3CC3(Cl)Cl)n2n1 (centres unmarked) [compound 502]
4.27 | Clc1ccccc1-c1c(Cl)nc2nc(C3CC3)nn2c1N1CCCCC1 [compound 493]
4.08 | CC(C)(C)CNc1c(-c2c(F)cccc2Cl)c(Cl)nc2nc(C3CC3)nn12 [compound 477]
2.8 | Cc1nc2nc(Cl)c(-c3ccccc3F)c(N3CC(C)OC(C)C3)n2n1 (centres unmarked) [compound 382]
3.56 | Cc1nc2nc(Cl)c(-c3ccc(F)cc3F)c(NC3CCC(C(F)(F)F)CC3)n2n1 (centres unmarked) [compound 409]
2.71 | Cc1nc2nc(Cl)c(-c3c(F)cccc3F)c(Nc3ccc(F)cc3)n2n1 [compound 445]
3.31 | Cc1nc2nc(Cl)c(-c3c(F)cccc3F)c(NOCc3c(Cl)cccc3Cl)n2n1 [compound 435]
3.19 | Fc1cccc(Cl)c1-c1c(Cl)nc2nc(C3CC3)nn2c1NCC(F)(F)F [compound 481]
2.97 | Cc1nc2nc(F)c(-c3ccccc3Cl)c(NC(C)C(F)(F)F)n2n1 (centres unmarked) [compound 438]
3.57 | Cc1nc2nc(Cl)c(-c3c(F)cccc3F)c(N3CCCCC3C)n2n1 (centres unmarked) [compound 311]
2.6 | Cc1nc2nc(Cl)c(-c3c(F)cccc3F)c(N3CCC4(CC3)OCCO4)n2n1 [compound 309]
3.91 | Cc1nc2nc(Cl)c(-c3c(F)cccc3F)c(N3CCC(C)(C)CC3)n2n1 [compound 315]
2.87 | CCC(C)ONc1c(-c2ccccc2F)c(Cl)nc2nc(C)nn12 (centres unmarked) [compound 370]

Same assay, conditions: HPLC, gradient method, acetonitrile/0.1% aqueous phosphoric acid; EEC directive 79/831 Annex V. A8

logP | SMILES
3.23 | CCc1nc2nc(Cl)c(-c3c(F)cc(F)cc3F)c(NCC3CC3)n2n1 [compound 81]
3.38 | COCCNc1c(-c2c(F)cc(F)cc2F)c(Cl)nc2nc(C(F)(F)F)nn12 [compound 107]
3.06 | Cc1nc2nc(Cl)c(-c3c(F)cc(F)cc3F)c(N(N)CC(C)C)n2n1 [compound 129]
4.04 | Fc1ccc(-c2c(Cl)nc3nc(C(F)(F)F)nn3c2N2CCSCC2)c(F)c1 [compound 810]
5.25 | C=C(C)CN(CC)c1c(-c2ccc(Cl)cc2Cl)c(Cl)nc2nc(C3CC3)nn12 [compound 769]
3.44 | CC(C)CNc1c(-c2c(F)cccc2F)c(Cl)nc2nc(C3CC3)nn12 [compound 744]
2.75 | COCCNc1c(-c2ccc(F)cc2F)c(Cl)nc2nc(C3CC3)nn12 [compound 654]
2.32 | COC(=O)CN(C)c1c(-c2c(F)cccc2F)c(Cl)nc2nc(C)nn12 [compound 565]
4.21 | Fc1ccc(-c2c(Cl)nc3nc(C(F)(F)F)nn3c2NC2CCCC2)c(F)c1 [compound 530]
1.61 | CN(C)CCCN(C)c1c(-c2ccc(F)cc2F)c(Cl)nc2nc(C3CC3)nn12 [compound 665]
3.16 | COCCN(C)c1c(-c2ccc(F)cc2F)c(Cl)nc2nc(C3CC3)nn12 [compound 669]
3.6 | Cc1nc2nc(Cl)c(-c3ccc(F)cc3Cl)c(NC(C)C(C)C)n2n1 (centres unmarked) [compound 588]
2.12 | CNc1c(-c2c(F)cc(F)cc2F)c(Cl)nc2nc(C)nn12 [compound 90]
2.97 | Cc1nc2nc(Cl)c(-c3c(F)cccc3F)c(N(C)Cc3ccco3)n2n1 [compound 566]
3.14 | CCCNc1c(-c2c(F)cc(F)cc2F)c(Cl)nc2nc(CC)nn12 [compound 74]
3.43 | Cc1nc2nc(Cl)c(-c3c(F)cccc3Cl)c(NC(C)C(C)C)n2n1 (centres unmarked) [compound 688]
3.61 | Cc1cccc(Nc2c(-c3ccc(F)cc3F)c(Cl)nc3nc(C4CC4)nn23)c1 [compound 737]
2.84 | CCN(CCOC)c1c(-c2ccc(F)cc2F)c(Cl)nc2nc(C)nn12 [compound 128]
4.14 | Fc1ccc(-c2c(Cl)nc3nc(C4CC4)nn3c2N2CCCC2C(F)(F)F)c(F)c1 (centres unmarked) [compound 729]
3.18 | C=CCN(C)c1c(-c2c(F)cc(F)cc2F)c(Cl)nc2nc(C)nn12 [compound 152]
3.73 | C=C(C)CN(CC)c1c(-c2ccc(F)cc2F)c(Cl)nc2nc(C)nn12 [compound 96]

logP | SMILES
2.84 | Cc1nc2nc(Cl)c(-c3c(F)cccc3F)c(N3CCSCC3)n2n1 [compound 179]
2.84 | Cc1nc2nc(Cl)c(-c3c(F)cc(F)cc3F)c(N3CCSC3)n2n1 [compound 112]
2.3 | COCCNc1c(-c2ccccc2Cl)c(Cl)nc2nc(C)nn12 [compound 236]
2.85 | Cc1nc2nc(Cl)c(-c3ccccc3Cl)c(NCC3CC3)n2n1 [compound 216]
1.91 | CCN(CCN(C)C)c1c(-c2ccc(F)cc2F)c(Cl)nc2nc(C(F)(F)F)nn12 [compound 547]
2.45 | Cc1nc2nc(Cl)c(-c3ccc(F)cc3F)c(NC3CC3)n2n1 [compound 199]
4.21 | C=C(C)CN(C)c1c(-c2c(F)cccc2Cl)c(Cl)nc2nc(C3CC3)nn12 [compound 700]
3.57 | CC1=CCCN(c2c(-c3c(F)cc(F)cc3F)c(Cl)nc3nc(C)nn23)C1 [compound 85]
3.09 | CCC(C)Nc1c(-c2ccccc2Cl)c(Cl)nc2nc(C)nn12 (centres unmarked) [compound 212]
3.98 | C=C(C)CN(C)c1c(-c2c(F)cccc2F)c(Cl)nc2nc(C3CC3)nn12 [compound 677]
2.77 | Cc1nc2nc(Cl)c(-c3c(F)cccc3Cl)c(NC(C)C)n2n1 [compound 256]
3.24 | CCN(CC)c1c(-c2ccccc2Cl)c(Cl)nc2nc(C)nn12 [compound 242]
2.52 | CCCNc1c(-c2c(F)cccc2F)c(Cl)nc2nc(C)nn12 [compound 172]
4.05 | CCOC(=O)CN(CC)c1c(-c2ccc(F)cc2F)c(Cl)nc2nc(C(F)(F)F)nn12 [compound 551]
3.37 | CCc1nc2nc(Cl)c(-c3c(F)cc(F)cc3F)c(N(CC)CCOC)n2n1 [compound 30]
3.18 | CCN(CC1CCCO1)c1c(-c2ccc(F)cc2F)c(Cl)nc2nc(C)nn12 (centres unmarked) [compound 208]
3.15 | CCc1nc2nc(Cl)c(-c3c(F)cc(F)cc3F)c(NC(C)C)n2n1 [compound 76]
3 | Cc1nc2nc(Cl)c(-c3c(F)cc(F)cc3F)c(N3CC(C)OC(C)C3)n2n1 (centres unmarked) [compound 58]
4.37 | CC1CCCN(c2c(-c3ccc(F)cc3F)c(Cl)nc3nc(C4CC4)nn23)C1 (centres unmarked) [compound 612]
4.21 | CCCCN(C)c1c(-c2ccc(F)cc2F)c(Cl)nc2nc(C3CC3)nn12 [compound 671]
4.18 | CCCCN(CC)c1c(-c2ccccc2Cl)c(Cl)nc2nc(C)nn12 [compound 247]

logP | SMILES
3.49 | Cc1nc2nc(Cl)c(-c3ccc(F)cc3F)c(N(C)CC(C)C)n2n1 [compound 205]
4.03 | CCN(CCOC)c1c(-c2ccc(F)cc2F)c(Cl)nc2nc(C(F)(F)F)nn12 [compound 558]
3.99 | CC(Nc1c(-c2c(F)cc(F)cc2F)c(Br)nc2nc(C(F)(F)F)nn12)C(F)(F)F (centres unmarked) [compound 25]
3.4 | Cc1nc2nc(Cl)c(-c3ccc(F)cc3F)c(NCC(C)(C)C)n2n1 [compound 193]
4.08 | CCCN(CC1CC1)c1c(-c2c(F)cc(F)cc2F)c(Cl)nc2nc(C)nn12 [compound 162]
4.21 | CC(C)=NN(CC(C)C)c1c(-c2c(F)cccc2F)c(Cl)nc2nc(C3CC3)nn12 [compound 787]
1.47 | CCN(CCN)c1c(-c2ccc(F)cc2F)c(Cl)nc2nc(C3CC3)nn12 [compound 724]
2.93 | Cc1nc2nc(Cl)c(-c3c(F)cc(F)cc3F)c(N3OCCC3C)n2n1 (centres unmarked) [compound 585]
3.35 | C=CCN(CC)c1c(-c2ccc(F)cc2F)c(Cl)nc2nc(C)nn12 [compound 207]
4.03 | CC(C)CNc1c(-c2ccc(F)cc2F)c(Cl)nc2nc(C(F)(F)F)nn12 [compound 525]
2.97 | CCNc1c(-c2ccc(F)cc2F)c(Cl)nc2nc(C3CC3)nn12 [compound 712]
3.5 | C=CCN(CC)c1c(-c2ccccc2Cl)c(Cl)nc2nc(C)nn12 [compound 224]
4.76 | Fc1cc(F)c(-c2c(Cl)nc3nc(C(F)(F)F)nn3c2N2CCCCC2C(F)(F)F)c(F)c1 (centres unmarked) [compound 109]
4.71 | CCCN(CC1CCCCO1)c1c(-c2ccc(F)cc2F)c(Cl)nc2nc(C3CC3)nn12 (centres unmarked) [compound 599]
2.51 | Cc1nc2nc(Cl)c(-c3c(F)cc(F)cc3F)c(NC3CC3)n2n1 [compound 65]
3.57 | C=C(C)CN(C)c1c(-c2ccccc2Cl)c(Cl)nc2nc(C)nn12 [compound 223]
2.83 | C=C(C)CNc1c(-c2ccccc2Cl)c(Cl)nc2nc(C)nn12 [compound 217]
2.7 | CC(Nc1c(-c2ccc(Cl)cc2Cl)c(Cl)nc2nc(C3CC3)nn12)C(=O)O (centres unmarked) [compound 774]
3.92 | Fc1cc(F)c(-c2c(Cl)nc3nc(C(F)(F)F)nn3c2N2CCCC2)c(F)c1 [compound 103]

SMILES | logP
CN(CCCl)c1c(-c2ccc(F)cc2F)c(Cl)nc2nc(C3CC3)nn12 [compound 721] | 3.5
